The record followed here is PubChem BioAssay (NCI).

Some test systems named below: LOX IMVI melanoma; M14 melanoma; PC-3 prostate; HT29 colon; SF-268 CNS; HOP-92 NSCLC; NCI-H460 lung; SW-620 colon.
Common to all, as to assay: NCI anticancer screen, dose series, 48 h

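Step 1: Grow cells in 96-well plates. Step 2: Expose to compound for 48 hours at 5 concentrations. Step 3: Interpolate endpoints linearly; if unreached, use highest concentration. Here, GI50 denotes the concentration required for 50% inhibition of growth. Definition used: TGI = concentration required for complete inhibition of growth.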

As to `Cn1ccnc1C(=O)/C=C/c1ccc(C(=O)Nc2ccc(S(F)(F)(F)(F)F)cc2)cc1`, the GI50 in the test with LOX IMVI melanoma was 1.01 µM; in the test on M14 melanoma it was 9.17 µM; in the test with PC-3 prostate it was 1.9 µM; with HT29 colon it was 1.88 µM; in the test with SF-268 CNS, 3.09 µM; in the test with HOP-92 NSCLC it was 3.03 µM. Further, the GI50 in the test on NCI-H460 lung was 0.534 µM; in the test with SW-620 colon it was 0.54 µM. Also, the TGI in the test on LOX IMVI melanoma was 3.25 µM; in the test on M14 melanoma, > 14.3 µM; in the test with PC-3 prostate, > 14.3 µM; with HT29 colon, > 14.3 µM; in the test with SF-268 CNS, > 14.3 µM; in the test with HOP-92 NSCLC, > 14.3 µM. Also, the TGI in the test with NCI-H460 lung stood at 2.57 µM; in the test with SW-620 colon, 5.58 µM.

Take `Fc1ccc(-c2nn3c(-c4ccc(F)c(Cl)c4)nnc3s2)cc1`: the GI50 in the test with LOX IMVI melanoma was 32.8 µM; in the test with M14 melanoma, > 50 µM; with PC-3 prostate, 29.1 µM; with HT29 colon it was 22.9 µM; with SF-268 CNS it was 38.7 µM; with HOP-92 NSCLC it was 15.6 µM. For the same molecule, the GI50 with NCI-H460 lung was 27.7 µM; with SW-620 colon, > 50 µM. Also, the TGI with LOX IMVI melanoma, in the test with M14 melanoma, in the test on PC-3 prostate, in the test on HT29 colon, with SF-268 CNS and in the test on HOP-92 NSCLC was > 50 µM throughout. Also, the TGI in the test on NCI-H460 lung and in the test on SW-620 colon was > 50 µM each time.

As for `CCC1C(=O)OCc2c1cc1n(c2=O)Cc2cc3ccccc3nc2-1` (stereo unspecified), the TGI was > 51.2 µM with LOX IMVI melanoma; 13.7 µM in the test on M14 melanoma; > 100 µM in the test with PC-3 prostate; > 100 µM in the test with HT29 colon; > 100 µM with SF-268 CNS; > 100 µM in the test with HOP-92 NSCLC. Moreover, the TGI in the test with NCI-H460 lung was 64.4 µM; with SW-620 colon, > 100 µM.

Turning to `CCOc1ccccc1NC(=O)c1cc2ccccc2cc1O`, the GI50 is 3.28 µM in the test with LOX IMVI melanoma; 3.15 µM in the test on M14 melanoma; 2.73 µM in the test on PC-3 prostate; 8.35 µM in the test with HT29 colon; 3.91 µM with SF-268 CNS; 1.72 µM in the test with HOP-92 NSCLC. In addition, the GI50 in the test on NCI-H460 lung is 2.94 µM; in the test with SW-620 colon it was 3.67 µM. Also, the TGI with LOX IMVI melanoma worked out at 11.2 µM; with M14 melanoma, 11 µM; in the test on PC-3 prostate, 10.1 µM; with HT29 colon, 25.4 µM; in the test with SF-268 CNS, 20.4 µM; in the test on HOP-92 NSCLC it was 5.08 µM. Also, the TGI in the test on NCI-H460 lung was 7.03 µM; in the test on SW-620 colon, 12.6 µM.

Regarding `CC(C)Nc1ccc(Nc2ccccc2)cc1`, the GI50 in the test with LOX IMVI melanoma is 13.1 µM; in the test with M14 melanoma it was 14.9 µM; in the test on PC-3 prostate, 9.2 µM; in the test with HT29 colon it was 17 µM; with SF-268 CNS, 17 µM; in the test with HOP-92 NSCLC, 12 µM. In addition, the figures for the GI50 in the test with NCI-H460 lung and with SW-620 colon were 18.9 µM and 15.8 µM, respectively. The TGI in the test with LOX IMVI melanoma was found to be 29.1 µM; with M14 melanoma it was 33 µM; with PC-3 prostate, 31.3 µM; in the test on HT29 colon, 48.4 µM; in the test with SF-268 CNS, 50.4 µM; with HOP-92 NSCLC it was 30 µM. Also, the values for the TGI with NCI-H460 lung and in the test on SW-620 colon were > 100 µM and 45.8 µM, respectively.

Take `N=C(N)c1ccc(OCCOCCOc2ccc(C(=N)N)cc2)cc1`: the GI50 is > 100 µM in the test with LOX IMVI melanoma; > 100 µM in the test with M14 melanoma; > 100 µM with PC-3 prostate; 78.3 µM with HT29 colon; 52 µM with SF-268 CNS; 74.6 µM in the test on HOP-92 NSCLC. Moreover, the GI50 was 44.2 µM in the test on NCI-H460 lung and > 100 µM with SW-620 colon. Further, the TGI in the test with LOX IMVI melanoma, in the test with M14 melanoma, in the test on PC-3 prostate, in the test on HT29 colon, in the test on SF-268 CNS and in the test with HOP-92 NSCLC was > 100 µM throughout. For the same molecule, the TGI in the test with NCI-H460 lung and in the test with SW-620 colon was > 100 µM in each case.

Consider `CCCCCc1nc2c(c3c1CCCC3)CCCC2`, for which the GI50 in the test on LOX IMVI melanoma is 13.4 µM; in the test on M14 melanoma, 12.9 µM; in the test on PC-3 prostate it was 8.04 µM; in the test with HT29 colon it was 1.85 µM; in the test on SF-268 CNS, 14.8 µM; in the test with HOP-92 NSCLC it was 1.95 µM. The GI50 was 12 µM in the test on NCI-H460 lung and 11.2 µM in the test on SW-620 colon. Besides, the TGI with LOX IMVI melanoma stood at 27 µM; in the test with M14 melanoma, 29.4 µM; in the test with PC-3 prostate, 31.1 µM; in the test with HT29 colon it was 14.8 µM; in the test with SF-268 CNS, 44.4 µM; in the test on HOP-92 NSCLC, 8.36 µM. Besides, the results for the TGI in the test on NCI-H460 lung and with SW-620 colon were 30.1 µM and 27.3 µM, respectively.

Regarding `CC(=O)CCc1ccc(OC2OC(COC(=O)c3cc(O)c(O)c(O)c3)C(O)C(O)C2OC(=O)/C=C/c2ccccc2)cc1` (stereo unspecified), the GI50 in the test on LOX IMVI melanoma is 17.1 µM; with M14 melanoma it was 18.6 µM; with PC-3 prostate it was 33.4 µM; in the test with HT29 colon, 29.6 µM; with SF-268 CNS, 19.3 µM; in the test with HOP-92 NSCLC, 30.4 µM. Further, the GI50 with NCI-H460 lung is 21 µM; in the test with SW-620 colon it was 35.1 µM. In addition, the TGI is 41.4 µM with LOX IMVI melanoma; 37.4 µM in the test on M14 melanoma; > 100 µM in the test with PC-3 prostate; 82.2 µM in the test on HT29 colon; 49.4 µM in the test with SF-268 CNS; > 100 µM with HOP-92 NSCLC. In addition, the TGI with NCI-H460 lung was 43.5 µM; in the test on SW-620 colon, 97.5 µM.

As to `CN(Cc1ccc(Cl)cc1)c1ccc(CO)c(Cl)c1`, the GI50 is 4.48 µM in the test on LOX IMVI melanoma; 8.33 µM with M14 melanoma; 12.8 µM with PC-3 prostate; 6.7 µM in the test with HT29 colon; 14.2 µM in the test on SF-268 CNS; 3.16 µM in the test on HOP-92 NSCLC. Also, the GI50 in the test with NCI-H460 lung is 1.35 µM; with SW-620 colon it was 3.85 µM. For the same molecule, the TGI in the test with LOX IMVI melanoma is 16.7 µM; in the test with M14 melanoma it was 22.3 µM; in the test with PC-3 prostate, 31 µM; in the test with HT29 colon, 22.6 µM; in the test on SF-268 CNS, 29.5 µM; in the test with HOP-92 NSCLC it was 16.1 µM. In addition, the TGI with NCI-H460 lung was 11.1 µM; in the test on SW-620 colon, 19.5 µM.
